According to patent US4564641A, “Substituted 1-oxo-2-phenyl-2-(2-alkylaminoethyl)-1,2,3,4-tetrahydronaphthalenes, their preparation and their use” (BASF Aktiengesellschaft, priority 1982, dated 1986):
Structures can show the parent of a compound that is named as a salt. Where two headings read alike, the source gives them in different places.

Test system: reserpine-induced hypothermia
Assay: inhibition of reserpine-induced hypothermia in mice (antidepressant action)
Format: in vivo, mice (Swiss strain)
Conditions: for ED50: Mus musculus; for ED50 / ED50 (antidepressant action, dose which inhibits the reserpine-induced hypothermia by 50%): body temperature two hours after reserpine
Method: The antidepressant action of the substances according to the invention was investigated using the following model:
2.15 mg/kg of reserpine administered subcutaneously to male mice (Swiss strain) weighing 20-26 g lowers the body temperature by an average of 3° C., measured two hours after administration of the reserpine and at an ambient temperature of 20°-22° C. Antidepressants inhibit this hypothermia, the inhibition being dose-dependent. The test substances are administered orally, 60 minutes before the administration of reserpine.
The dose which inhibits the reserpine-induced hypothermia by 50%, ie. the ED50, is determined from the linear regression between log dose (mg/kg) and relative decrease in hypothermia.
In some cases, the activity is substantially greater than that of imipramine (for Example 18c, by a factor of 72).

[1] = male mice (Swiss strain), oral, 60 minutes before 2.15 mg/kg reserpine s.c., read-out: ED50 (antidepressant action, dose which inhibits the reserpine-induced hypothermia by 50%)
[2] = male mice (Swiss strain), oral, 60 minutes before 2.15 mg/kg reserpine s.c.
[3] = po, read-out: ED50 (antidepressant action, dose which inhibits the reserpine-induced hypothermia by 50%), male mice (Swiss strain), oral, 60 minutes before 2.15 mg/kg reserpine s.c.

Structure (SMILES)	ED50 [1]	further results
CN(C)CCC1(c2ccc(Cl)cc2)CCc2ccccc2C1=O (centres unmarked) [Example 3, 1-oxo-2-(4-chlorophenyl)-2-(2-dimethylaminoethyl)-1,2,3,4-tetrahydronaphthalene]	4.6 mg/kg	–
COc1cccc(C2(CCN(C)C)CCc3ccccc3C2=O)c1.O=C(O)C(=O)O (centres unmarked) [Example 14, 1-oxo-2-(3-methoxyphenyl)-2-(2-dimethylaminoethyl)-1,2,3,4-tetrahydronaphthalene hydrogen oxalate]	2.3 mg/kg	–
CN(C)CCC1(c2cccc(Cl)c2)CCc2ccccc2C1=O.Cl (centres unmarked) [Example 8, 1-oxo-2-(3-chlorophenyl)-2-(2-dimethylaminoethyl)-1,2,3,4-tetrahydronaphthalene hydrochloride]	5.2 mg/kg	–
CN(C)CCC1(c2ccccc2)CCc2ccccc2C1=O (racemic) [Example 18c, 1-oxo-2-phenyl-2-(2-dimethylaminoethyl)-1,2,3,4-tetrahydronaphthalene]	–	ED50 (antidepressant action, dose which inhibits the reserpine-induced hypothermia by 50%) [2]: 0.09 mg/kg; activity greater than that of imipramine, by a factor of (ratio of ED50 to imipramine, oral, mice): 72
CN(C)CCC1(c2ccc(F)cc2)CCc2ccccc2C1=O.Cl (centres unmarked) [Example 5, 1-oxo-2-(4-fluorophenyl)-2-(2-dimethylaminoethyl)-1,2,3,4-tetrahydronaphthalene hydrochloride]	4.9 mg/kg	–
CN(C)CCCN1c2ccccc2CCc2ccccc21 [imipramine, reference compound]	–	ED50 [3]: 6.8 mg/kg
Cc1cccc(C2(CCN(C)C)CCc3ccccc3C2=O)c1 (centres unmarked) [Example 2, 1-oxo-2-(3-tolyl)-2-(2-dimethylaminoethyl)-1,2,3,4-tetrahydronaphthalenehydrochloride]	6.8 mg/kg	–
CN(C)CCC1(c2ccccc2)CCc2ccccc2C1=O (centres unmarked) [Example 1, 1-oxo-2-phenyl-2-(2-dimethylaminoethyl)-1,2,3,4-tetrahydronaphthalene]	–	ED50 [3]: 0.14 mg/kg
CN(C)CCC1(c2ccccc2)CCc2ccccc2C1=O (racemic) [Example 18a, 1-oxo-2-phenyl-2-(2-dimethylaminoethyl)-1,2,3,4-tetrahydronaphthalene]	–	ED50 (antidepressant action, dose which inhibits the reserpine-induced hypothermia by 50%) [2]: 0.85 mg/kg
CN(C)CCC1(c2ccccc2)CCc2c(Cl)cccc2C1=O (centres unmarked) [Example 12, 1-oxo-5-chloro-2-phenyl-2-(2-dimethylaminoethyl)-1,2,3,4-tetrahydronaphthalene]	0.9 mg/kg	–
